In patent US20120239131A1, “METHODS AND APPARATUS FOR TREATMENT OF ANEURYSMAL TISSUE” (Medtronic Vascular, Inc., priority 2011, published 2012):

Assays:
[1] = in vivo; cited from earlier work
[2] = tested on: Osteopontin; test: Aortic mural gene expression, RT-PCR (TLDA); format: in vivo, ApoE−/− mice; settings: fold change over ApoE−/− control; aorta, 28 days Ang II infusion
Protocol: (§1) ApoE−/− mice used in this study were divided into different pretreatment groups: 1) Fluvastatin-MF; 2) Doxycycline-MD; 3) Irbesartan-MI; 4) Telmisartan-MT; 5) Control (water) and fed medicated chow or medicated drinking water 1 week prior to pump implantation. AngII (1000 ng·kg^−1 of body weight·min^−1) was infused subcutaneously via Alzet mini-osmotic pumps for 28 days. All mice were maintained on the medicated chow (MI & MT) or medicated drinking water (MF & MD) treatments which were delivered daily for a total of 28 days following pump implantation.
(§2) In order to determine the effect of the various treatments on the progressive enlargement of the experimental AAAs the mice were followed with high frequency trans-abdominal ultrasound. Maximum aortic diameter was measured and recorded prior to pump implantation and then at 3, 7, 14, 21, and 28 days. All mice were sacrificed 28 days after pump implantation. Aortae were harvested and subjected to either histological analysis (Elastic Masson trichome, MAC2, CD31 and TUNEL staining) and analysis of mural gene expression. Plasma drug concentrations of experimental compounds were quantified on the day of sacrifice using high performance liquid chromatography (HPLC).
(§3) Total RNA was extracted from homogenized aortas using the Qiazol lysis reagent and RNeasy Lipid Tissue Mini kit. DNAse treatment was included in the procedure. RNA concentration was determined utilizing the Quant iT RNA assay kit. Complimentary deoxyribonucleic acid (cDNA) was synthesized from 1 μg RNA using High reverse cDNA transcription kit. Briefly the reaction tubes containing RNA, reverse transcriptase, buffer, RNAse inhibitor, and nuclease free water were incubated at 25° C. for 10 minutes to allow annealing. Reverse transcription was performed at 37° C. for 120 min, followed by a 5 sec incubation at 85° C. to inactivate the reverse transcriptase enzyme. The cDNA samples were cooled at 4° C. and stored at −80° C. until further use.
(§4) Real time PCR was performed using a 384-well Taqman low density array (TLDA) card. Each sample specific PCR mix contained 50 ng of total RNA converted to cDNA. The PCR reaction for Taqman assays contained 50 μl Master Mix (Taqman Universal PCR Master Mix,) and 50 ul of cDNA and RNAase free water. Assays were performed to include appropriate controls (no template control). The RT-PCR protocol included an initial step of 50° C. (2 minutes) […], denaturation by a hot start at 95° C. for 10 min, followed by 40 cycles of a 2 step program (denaturation at 95° C. for 15 secs for primer annealing/extension at 60° C. for 1 min). Fluorescence data was collected at 60° C. Fluorescence was quantified with ABI PRISM 7900HT Sequence Detection System. To verify amplification of a specific target cDNA, data generated was analyzed using SDS 2.2.3 software (Sequence Detection System Software, Applied Biosystems). For all amplification plots, the baseline data were set with the automatic CT function available with SDS 2.2.3 calculating the optimal baseline range and threshold value by using the AutoCT algorithm. According to the manufacturer's instruction, a CT value of ≧39 corresponds to nonspecific amplification marking the limits of detection. For endogenous control GAPDH was normalized to B2M. For relative quantification (RQ), pooled ApoE−/− control was used as the calibrator (with expression equal to 1).

[3] = tested on: ITGB2; test: Aortic mural gene expression, RT-PCR (TLDA); format: in vivo, ApoE−/− mice; settings: fold change over ApoE−/− control; aorta, 28 days Ang II infusion
Protocol: as §1, §2, §3, §4

[4] = tested on: IL-7; test: Aortic mural gene expression, RT-PCR (TLDA); format: in vivo, ApoE−/− mice; settings: fold change over ApoE−/− control; aorta, 28 days Ang II infusion
Protocol: as §1, §2, §3, §4

[5] = tested on: CXCR4; test: Aortic mural gene expression, RT-PCR (TLDA); format: in vivo, ApoE−/− mice; settings: fold change over ApoE−/− control; aorta, 28 days Ang II infusion
Protocol: as §1, §2, §3, §4

[6] = tested on: LOX; test: Aortic mural gene expression, RT-PCR (TLDA); format: in vivo, ApoE−/− mice; settings: fold change over ApoE−/− control; aorta, 28 days Ang II infusion
Protocol: as §1, §2, §3, §4

[7] = tested on: MMP-8; test: Aortic mural gene expression, RT-PCR (TLDA); format: in vivo, ApoE−/− mice; settings: fold change over ApoE−/− control; aorta, 28 days Ang II infusion
Protocol: as §1, §2, §3, §4

[8] = tested on: Tgfβ1; test: Aortic mural gene expression, RT-PCR (TLDA); format: in vivo, ApoE−/− mice; settings: fold change over ApoE−/− control; aorta, 28 days Ang II infusion
Protocol: as §1, §2, §3, §4

[9] = tested on: Fibronectin -1; test: Aortic mural gene expression, RT-PCR (TLDA); format: in vivo, ApoE−/− mice; settings: fold change over ApoE−/− control; aorta, 28 days Ang II infusion
Protocol: as §1, §2, §3, §4

[10] = tested on: TIMP2; test: Aortic mural gene expression, RT-PCR (TLDA); format: in vivo, ApoE−/− mice; settings: fold change over ApoE−/− control; aorta, 28 days Ang II infusion
Protocol: as §1, §2, §3, §4

[11] = tested on: CCR2; test: Aortic mural gene expression, RT-PCR (TLDA); format: in vivo, ApoE−/− mice; settings: fold change over ApoE−/− control; aorta, 28 days Ang II infusion
Protocol: as §1, §2, §3, §4

[12] = tested on: CCL2; test: Aortic mural gene expression, RT-PCR (TLDA); format: in vivo, ApoE−/− mice; settings: fold change over ApoE−/− control; aorta, 28 days Ang II infusion
Protocol: as §1, §2, §3, §4

[13] = tested on: Rac2; test: Aortic mural gene expression, RT-PCR (TLDA); format: in vivo, ApoE−/− mice; settings: fold change over ApoE−/− control; aorta, 28 days Ang II infusion
Protocol: as §1, §2, §3, §4

[14] = tested on: Cathepsin S; test: Aortic mural gene expression, RT-PCR (TLDA); format: in vivo, ApoE−/− mice; settings: fold change over ApoE−/− control; aorta, 28 days Ang II infusion
Protocol: as §1, §2, §3, §4

[15] = tested on: Cathepsin B; test: Aortic mural gene expression, RT-PCR (TLDA); format: in vivo, ApoE−/− mice; settings: fold change over ApoE−/− control; aorta, 28 days Ang II infusion
Protocol: as §1, §2, §3, §4

[16] = tested on: Vav1; test: Aortic mural gene expression, RT-PCR (TLDA); format: in vivo, ApoE−/− mice; settings: fold change over ApoE−/− control; aorta, 28 days Ang II infusion
Protocol: as §1, §2, §3, §4

[17] = tested on: TNF-α; test: Aortic mural gene expression, RT-PCR (TLDA); format: in vivo, ApoE−/− mice; settings: fold change over ApoE−/− control; aorta, 28 days Ang II infusion
Protocol: as §1, §2, §3, §4

[18] = tested on: CCR5; test: Aortic mural gene expression, RT-PCR (TLDA); format: in vivo, ApoE−/− mice; settings: fold change over ApoE−/− control; aorta, 28 days Ang II infusion
Protocol: as §1, §2, §3, §4

[19] = tested on: Runx3; test: Aortic mural gene expression, RT-PCR (TLDA); format: in vivo, ApoE−/− mice; settings: fold change over ApoE−/− control; aorta, 28 days Ang II infusion
Protocol: as §1, §2, §3, §4

[20] = tested on: MAPK8; test: Aortic mural gene expression, RT-PCR (TLDA); format: in vivo, ApoE−/− mice; settings: fold change over ApoE−/− control; aorta, 28 days Ang II infusion
Protocol: as §1, §2, §3, §4

[21] = tested on: ITGAL; test: Aortic mural gene expression, RT-PCR (TLDA); format: in vivo, ApoE−/− mice; settings: fold change over ApoE−/− control; aorta, 28 days Ang II infusion
Protocol: as §1, §2, §3, §4

[22] = tested on: MMP-12; test: Aortic mural gene expression, RT-PCR (TLDA); format: in vivo, ApoE−/− mice; settings: fold change over ApoE−/− control; aorta, 28 days Ang II infusion
Protocol: as §1, §2, §3, §4

[23] = tested on: HMOX 1; test: Aortic mural gene expression, RT-PCR (TLDA); format: in vivo, ApoE−/− mice; settings: fold change over ApoE−/− control; aorta, 28 days Ang II infusion
Protocol: as §1, §2, §3, §4

[24] = tested on: Cybb; test: Aortic mural gene expression, RT-PCR (TLDA); format: in vivo, ApoE−/− mice; settings: fold change over ApoE−/− control; aorta, 28 days Ang II infusion
Protocol: as §1, §2, §3, §4

[25] = tested on: CSF1; test: Aortic mural gene expression, RT-PCR (TLDA); format: in vivo, ApoE−/− mice; settings: fold change over ApoE−/− control; aorta, 28 days Ang II infusion
Protocol: (§5) Total RNA was extracted from homogenized aortas using the Qiazol lysis reagent and RNeasy Lipid Tissue Mini kit. DNAse treatment was included in the procedure. RNA concentration was determined utilizing the Quant iT RNA assay kit. Complimentary deoxyribonucleic acid (cDNA) was synthesized from 1 μg RNA using High reverse cDNA transcription kit. Briefly the reaction tubes containing RNA, reverse transcriptase, buffer, RNAse inhibitor, and nuclease free water were incubated at 25° C. for 10 minutes to allow annealing. […] The cDNA samples were cooled at 4° C. and stored at −80° C. until further use.
(§6) Real time PCR was performed using a 384-well Taqman low density array (TLDA) card. Each sample specific PCR mix contained 50 ng of total RNA converted to cDNA. The PCR reaction for Taqman assays contained 50 μl Master Mix (Taqman Universal PCR Master Mix,) and 50 ul of cDNA and RNAase free water. Assays were performed to include appropriate controls (no template control). The RT-PCR protocol included an initial step of 50° C. […] Fluorescence data was collected at 60° C. Fluorescence was quantified with ABI PRISM 7900HT Sequence Detection System. To verify amplification of a specific target cDNA, data generated was analyzed using SDS 2.2.3 software (Sequence Detection System Software, Applied Biosystems). […] For relative quantification (RQ), pooled ApoE−/− control was used as the calibrator (with expression equal to 1).

[26] = tested on: genes involved in the pathophysiology of AAA; test: Drug inhibition effect on differentially expressed genes, overall; format: in vivo, ApoE−/− mice; settings: sum of heat map grades over 25 genes; ApoE−/− + Ang II group scored 55
Protocol: as §1, §2, §3, §4

[27] = tested on: NFKb1; test: Aortic mural gene expression, RT-PCR (TLDA); format: in vivo, ApoE−/− mice; settings: fold change over ApoE−/− control; aorta, 28 days Ang II infusion
Protocol: as §5, §6

[28] = target: ACE (Homo sapiens, UniProt P12821); settings: in vitro; cited from earlier work
Chain of ACE (P12821 30-1306, species assumed): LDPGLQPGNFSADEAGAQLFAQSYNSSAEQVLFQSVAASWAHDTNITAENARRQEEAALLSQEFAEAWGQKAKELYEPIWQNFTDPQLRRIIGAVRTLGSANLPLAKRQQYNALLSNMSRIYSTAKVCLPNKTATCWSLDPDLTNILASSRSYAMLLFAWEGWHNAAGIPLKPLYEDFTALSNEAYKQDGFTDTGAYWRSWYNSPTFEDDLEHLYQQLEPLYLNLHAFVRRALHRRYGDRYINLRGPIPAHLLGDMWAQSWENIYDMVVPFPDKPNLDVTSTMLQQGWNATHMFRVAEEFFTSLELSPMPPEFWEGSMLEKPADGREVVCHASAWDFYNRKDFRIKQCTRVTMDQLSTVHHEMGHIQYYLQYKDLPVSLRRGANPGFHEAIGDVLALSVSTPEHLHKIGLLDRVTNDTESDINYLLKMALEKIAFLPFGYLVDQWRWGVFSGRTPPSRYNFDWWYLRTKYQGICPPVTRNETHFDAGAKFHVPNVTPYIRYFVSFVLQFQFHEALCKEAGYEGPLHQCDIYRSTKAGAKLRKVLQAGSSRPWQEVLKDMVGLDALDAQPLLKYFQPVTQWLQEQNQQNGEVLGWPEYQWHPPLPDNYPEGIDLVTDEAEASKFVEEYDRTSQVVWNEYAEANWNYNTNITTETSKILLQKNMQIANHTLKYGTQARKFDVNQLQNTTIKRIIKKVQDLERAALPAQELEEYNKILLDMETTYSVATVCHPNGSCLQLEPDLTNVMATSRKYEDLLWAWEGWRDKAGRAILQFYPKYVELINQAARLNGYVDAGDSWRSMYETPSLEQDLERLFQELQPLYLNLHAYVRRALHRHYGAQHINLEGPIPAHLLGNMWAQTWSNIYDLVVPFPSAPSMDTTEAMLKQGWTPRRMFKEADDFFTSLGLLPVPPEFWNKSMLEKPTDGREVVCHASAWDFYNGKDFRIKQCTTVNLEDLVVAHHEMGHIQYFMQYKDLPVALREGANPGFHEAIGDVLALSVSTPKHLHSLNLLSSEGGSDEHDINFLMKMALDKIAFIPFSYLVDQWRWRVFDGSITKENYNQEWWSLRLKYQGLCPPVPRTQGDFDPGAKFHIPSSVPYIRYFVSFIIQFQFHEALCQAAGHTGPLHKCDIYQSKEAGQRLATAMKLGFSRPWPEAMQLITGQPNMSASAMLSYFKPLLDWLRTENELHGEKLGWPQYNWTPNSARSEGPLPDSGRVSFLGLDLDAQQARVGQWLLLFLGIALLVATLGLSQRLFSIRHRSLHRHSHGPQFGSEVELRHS

[29] = cited from earlier work

SMILES: CCC(=O)O[C@@H](O[P@](=O)(CCCCc1ccccc1)CC(=O)N1C[C@H](C2CCCCC2)C[C@H]1C(=O)O)C(C)C [fosinopril]
- Route of clearance/elimination [1]: balanced elimination by the liver and kidneys

SMILES: C[C@H]1c2cccc(O)c2C(=O)C2=C(O)[C@]3(O)C(=O)C(C(N)=O)=C(O)[C@@H](N(C)C)[C@@H]3[C@@H](O)[C@@H]21 [Doxycycline]
- Osteopontin expression [2]: ++++ (>10.1 = ++++)
- ITGB2 expression [3]: ++ (1.51 to 3 = ++)
- IL-7 expression [4]: − (0 to 1 = −)
- CXCR4 expression [5]: ++++ (>10.1 = ++++)
- LOX expression [6]: − (0 to 1 = −)
- MMP-8 expression [7]: ++++ (>10.1 = ++++)
- Tgfβ1 expression [8]: +++ (3.1 to 10 = +++)
- Fibronectin -1 expression [9]: − (0 to 1 = −)
- TIMP2 expression [10]: − (0 to 1 = −)
- CCR2 expression [11]: +++ (3.1 to 10 = +++)
- CCL2 expression [12]: + (1.1 to 1.5 = +)
- Rac2 expression [13]: +++ (3.1 to 10 = +++)
- Cathepsin S expression [14]: +++ (3.1 to 10 = +++)
- Cathepsin B expression [15]: ++ (1.51 to 3 = ++)
- Vav1 expression [16]: ++ (1.51 to 3 = ++)
- TNF-α expression [17]: ++ (1.51 to 3 = ++)
- CCR5 expression [18]: +++ (3.1 to 10 = +++)
- Runx3 expression [19]: +++ (3.1 to 10 = +++)
- MAPK8 expression [20]: − (0 to 1 = −)
- ITGAL expression [21]: +++ (3.1 to 10 = +++)
- MMP-12 expression [22]: ++++ (>10.1 = ++++)
- HMOX 1 expression [23]: ++++ (>10.1 = ++++)
- Cybb expression [24]: +++ (3.1 to 10 = +++)
- CSF1 expression [25]: − (0 to 1 = −)
- Total Score [26]: 53
- NFKb1 expression [27]: − (0 to 1 = −)

SMILES: CCOC(=O)[C@H](CCc1ccccc1)N[C@@H](C)C(=O)N1CCC[C@H]1C(=O)O [enalapril]
- ACE inhibitor potency (in words) [28]: not highly active

SMILES: CCOC(=O)[C@H](CCc1ccccc1)N[C@@H](C)C(=O)N1CC2(C[C@H]1C(=O)O)SCCS2 [spirapril]
- Route of clearance/elimination [1]: balanced elimination by the liver and kidneys

SMILES: O=C(O)c1cccnc1 [Niacin, nicotinic acid]
- Water solubility [29]: water-soluble
